In brackets after ≈: the same amount, converted by molar mass. Counter-ions that a name gives are not always drawn.
Legend:
Micrococcus luteus [1] = assay: Antibacterial activity against Micrococcus luteus ATCC 9341 assessed as growth inhibition by M7-A6 method; assay type: functional
Micrococcus luteus [2] = assay: Antibacterial activity against Micrococcus luteus ATCC 10240 assessed as growth inhibition by M7-A6 method; assay type: functional
Bacillus subtilis = assay: Antibacterial activity against Bacillus subtilis ATCC 6633 assessed as growth inhibition by M7-A6 method; assay type: functional
Bacillus cereus = assay: Antibacterial activity against Bacillus cereus ATCC 11778 assessed as growth inhibition by M7-A6 method; assay type: functional
Staphylococcus aureus [3] = assay: Antibacterial activity against Staphylococcus aureus ATCC 6538 assessed as growth inhibition by M7-A6 method; assay type: functional
Staphylococcus aureus [4] = assay: Antibacterial activity against Staphylococcus aureus ATCC 6538P assessed as growth inhibition by M7-A6 method; assay type: functional
Escherichia coli [5] = assay: Antibacterial activity against Escherichia coli ATCC 8739 assessed as growth inhibition by M7-A6 method; assay type: functional
Pseudomonas aeruginosa [6] = assay: Antibacterial activity against Pseudomonas aeruginosa ATCC 15442 assessed as growth inhibition by M7-A6 method; assay type: functional
Pseudomonas aeruginosa [7] = assay: Antibacterial activity against Pseudomonas aeruginosa ATCC 9027 assessed as growth inhibition by M7-A6 method; assay type: functional
Candida albicans [8] = assay: Antifungal activity against Candida albicans ATCC 10231 assessed as growth inhibition by M7-A6 method; assay type: functional
Candida albicans [9] = assay: Antifungal activity against Candida albicans ATCC 2091 assessed as growth inhibition by M7-A6 method; assay type: functional
Candida parapsilosis = assay: Antifungal activity against Candida parapsilosis ATCC 22019 assessed as growth inhibition by M7-A6 method; assay type: functional; details: Lodderomyces parapsilosis
Aspergillus brasiliensis = assay: Antifungal activity against Aspergillus brasiliensis ATCC 16404 assessed as growth inhibition by M7-A6 method; assay type: functional
Saccharomyces cerevisiae = assay: Antifungal activity against Saccharomyces cerevisiae ATCC 9763 assessed as growth inhibition by M7-A6 method; assay type: functional
Staphylococcus aureus [10] = assay: Antibacterial activity against erythromycin, amikacin, clindamycin, ciprofloxacin, methicillin-resistant Staphylococcus aureus 15K/11 assessed as growth inhibition by M7-A6 method; assay type: functional
Staphylococcus aureus [11] = assay: Antibacterial activity against penicillin, erythromycin, amikacin, clindamycin, ciprofloxacin, methicillin-resistant Staphylococcus aureus 495/11 assessed as growth inhibition by M7-A6 method; assay type: functional
Staphylococcus aureus [12] = assay: Antibacterial activity against penicillin, erythromycin, amikacin, clindamycin, ciprofloxacin, methicillin-resistant Staphylococcus aureus 572/12 assessed as growth inhibition by M7-A6 method; assay type: functional
Staphylococcus aureus [13] = assay: Antibacterial activity against penicillin, erythromycin, clindamycin, ciprofloxacin, methicillin-resistant Staphylococcus aureus 19K/11 assessed as growth inhibition by M7-A6 method; assay type: functional
Staphylococcus aureus [14] = assay: Antibacterial activity against penicillin, erythromycin, amikacin, clindamycin, ciprofloxacin, methicillin-resistant Staphylococcus aureus 573/12 assessed as growth inhibition by M7-A6 method; assay type: functional
A549 [15] = assay: Cytotoxicity against human A549 cells assessed as inhibition of cell viability after 48 hrs by MTT assay; assay type: cell-based; details: A549, 48 h
A549 [16] = assay: Cytotoxicity against human A549 cells assessed as inhibition of cell viability after 72 hrs by MTT assay; assay type: cell-based; details: A549, 72 h
HeLa [17] = assay: Cytotoxicity against human HeLa cells assessed as inhibition of cell viability after 48 hrs by MTT assay; assay type: cell-based
HeLa [18] = assay: Cytotoxicity against human HeLa cells assessed as inhibition of cell viability after 72 hrs by MTT assay; assay type: cell-based
[19] = Cytotoxicity against human A549 cells assessed as cell viability at 200 ug/ml after 48 hrs by MTT assay; assay type: cell-based; details: read-out: Activity
[20] = Cytotoxicity against human A549 cells assessed as cell viability at 100 ug/ml after 48 hrs by MTT assay; assay type: cell-based; details: read-out: Activity
[21] = Cytotoxicity against human A549 cells assessed as cell viability at 50 ug/ml after 48 hrs by MTT assay; assay type: cell-based; details: read-out: Activity
[22] = Cytotoxicity against human A549 cells assessed as cell viability at 10 ug/ml after 48 hrs by MTT assay; assay type: cell-based; details: read-out: Activity
[23] = Cytotoxicity against human A549 cells assessed as cell viability at 200 ug/ml after 72 hrs by MTT assay; assay type: cell-based; details: read-out: Activity
[24] = Cytotoxicity against human A549 cells assessed as cell viability at 100 ug/ml after 72 hrs by MTT assay; assay type: cell-based; details: read-out: Activity
[25] = Cytotoxicity against human A549 cells assessed as cell viability at 50 ug/ml after 72 hrs by MTT assay; assay type: cell-based; details: read-out: Activity
[26] = Cytotoxicity against human A549 cells assessed as cell viability at 10 ug/ml after 72 hrs by MTT assay; assay type: cell-based; details: read-out: Activity
[27] = Cytotoxicity against human HeLa cells assessed as cell viability at 200 ug/ml after 48 hrs by MTT assay; assay type: cell-based; details: read-out: Activity
[28] = Cytotoxicity against human HeLa cells assessed as cell viability at 100 ug/ml after 48 hrs by MTT assay; assay type: cell-based; details: read-out: Activity
[29] = Cytotoxicity against human HeLa cells assessed as cell viability at 50 ug/ml after 48 hrs by MTT assay; assay type: cell-based; details: read-out: Activity
[30] = Cytotoxicity against human HeLa cells assessed as cell viability at 10 ug/ml after 48 hrs by MTT assay; assay type: cell-based; details: read-out: Activity
[31] = Cytotoxicity against human HeLa cells assessed as cell viability at 200 ug/ml after 72 hrs by MTT assay; assay type: cell-based; details: read-out: Activity
[32] = Cytotoxicity against human HeLa cells assessed as cell viability at 100 ug/ml after 72 hrs by MTT assay; assay type: cell-based; details: read-out: Activity
[33] = Cytotoxicity against human HeLa cells assessed as cell viability at 50 ug/ml after 72 hrs by MTT assay; assay type: cell-based; details: read-out: Activity
[34] = Cytotoxicity against human HeLa cells assessed as cell viability at 10 ug/ml after 72 hrs by MTT assay; assay type: cell-based; details: read-out: Activity
Escherichia coli [35] = assay: Antibacterial activity against Escherichia coli ATCC 10536 assessed as growth inhibition by M7-A6 method; assay type: functional
[36] = Antifungal activity against Zygosaccharomyces rouxii ATCC 28253 assessed as growth inhibition by M7-A6 method; assay type: functional

Row | SMILES | MIC (Micrococcus luteus [1]) [µM] | MIC (Micrococcus luteus [2]) [µM] | MIC (Bacillus subtilis) [µM] | MIC (Bacillus cereus) [µM] | MIC (Staphylococcus aureus [3]) [µM] | MIC (Staphylococcus aureus [4]) [µM] | MIC (Escherichia coli [5]) [µM] | MIC (Pseudomonas aeruginosa [6]) [µM] | MIC (Pseudomonas aeruginosa [7]) [µM] | MIC (Candida albicans [8]) [µM] | MIC (Candida albicans [9]) [µM] | MIC (Candida parapsilosis) [µM] | MIC (Aspergillus brasiliensis) [µM] | MIC (Saccharomyces cerevisiae) [µM] | MIC (Staphylococcus aureus [10]) [µM] | MIC (Staphylococcus aureus [11]) [µM] | MIC (Staphylococcus aureus [12]) [µM] | MIC (Staphylococcus aureus [13]) [µM] | MIC (Staphylococcus aureus [14]) [µM] | IC50 (A549 [15]) [µg/mL] | also measured
1 | Cl.N=C(N)c1ccc(SCCOCCSc2ccc(C(=N)N)cc2)cc1 | 4.3 | 4.3 | 130 | 540 | 130 | 130 | 540 | 2150 | 1070 | 1070 | 1070 | 270 | 2150 | 540 | 1070 | 1070 | 270 | 130 | 130 | 50 | IC50 (A549 [16]): 10 µg/mL; IC50 (HeLa [17]): < 50 µg/mL; IC50 (HeLa [18]): < 50 µg/mL; viability at 48 h, 200 ug/ml [19]: 9.5%; viability at 48 h, 100 ug/ml [20]: 19.8%; viability at 48 h, 50 ug/ml [21]: 48.1%; viability at 48 h, 10 ug/ml [22]: 77.1%; viability at 72 h, 200 ug/ml [23]: 7.9%; viability at 72 h, 100 ug/ml [24]: 8.2%; viability at 72 h, 50 ug/ml [25]: 16.2%; viability at 72 h, 10 ug/ml [26]: 56.4%; viability at 48 h, 200 ug/ml [27]: 10.1%; viability at 48 h, 100 ug/ml [28]: 10.3%; viability at 48 h, 50 ug/ml [29]: 10.4%; viability at 48 h, 10 ug/ml [30]: 76.2%; viability at 72 h, 200 ug/ml [31]: 7.4%; viability at 72 h, 100 ug/ml [32]: 7.4%; viability at 72 h, 50 ug/ml [33]: 7.8%; viability at 72 h, 10 ug/ml [34]: 65.3%
2 | CCCCNC(=N)c1ccc(OCCSCCOc2ccc(C(=N)NCCCC)cc2)cc1.Cl | 2.6 | 3.6 | 14 | 450 | 14 | 27 | 110 | > 1810 | > 1810 | 3.6 | 3.6 | 3.6 | 14 | 27 | 230 | 230 | 230 | 110 | 14 | > 100 | IC50 (A549 [16]): ≥ 50 µg/mL; IC50 (HeLa [17]): > 100 µg/mL; IC50 (HeLa [18]): > 100 µg/mL; viability at 48 h, 200 ug/ml [19]: 59.1%; viability at 48 h, 100 ug/ml [20]: 62.3%; viability at 48 h, 50 ug/ml [21]: 68.8%; viability at 48 h, 10 ug/ml [22]: 89.3%; viability at 72 h, 200 ug/ml [23]: 42.2%; viability at 72 h, 100 ug/ml [24]: 48.5%; viability at 72 h, 50 ug/ml [25]: 50.5%; viability at 72 h, 10 ug/ml [26]: 67.6%; viability at 48 h, 200 ug/ml [27]: 25.8%; viability at 48 h, 100 ug/ml [28]: 63.7%; viability at 48 h, 50 ug/ml [29]: 83.4%; viability at 48 h, 10 ug/ml [30]: 91.8%; viability at 72 h, 200 ug/ml [31]: 18.5%; viability at 72 h, 100 ug/ml [32]: 57.2%; viability at 72 h, 50 ug/ml [33]: 88.3%; viability at 72 h, 10 ug/ml [34]: 99%
3 | N=C(N)c1ccc(OCCSCCOc2ccc(C(=N)N)cc2)cc1 | 4.6 (≈ 1.65 µg/mL) | 23 (≈ 8.24 µg/mL) | 140 (≈ 50.2 µg/mL) | 69.5 (≈ 24.9 µg/mL) | 69.5 (≈ 24.9 µg/mL) | 140 (≈ 50.2 µg/mL) | 140 (≈ 50.2 µg/mL) | 2320 (≈ 832 µg/mL) | 1740 (≈ 624 µg/mL) | 140 (≈ 50.2 µg/mL) | 140 (≈ 50.2 µg/mL) | 23 (≈ 8.24 µg/mL) | 70 (≈ 25.1 µg/mL) | 290 (≈ 104 µg/mL) | 1160 (≈ 416 µg/mL) | 2320 (≈ 832 µg/mL) | 290 (≈ 104 µg/mL) | 140 (≈ 50.2 µg/mL) | 290 (≈ 104 µg/mL) |  | MIC (Escherichia coli [35]): 580 µM (≈ 208 µg/mL); MIC [36]: 70 µM (≈ 25.1 µg/mL)
4 | Cl.c1cc(C2=NCCN2)ccc1OCCSCCOc1ccc(C2=NCCN2)cc1 | 9.8 | 9.8 | 240 | 980 | 980 | 980 | 980 | > 1960 | > 1960 | 240 | 240 | 29 | > 1960 | 980 | 980 | 1960 | 1960 | 1960 | 1960 | > 100 | IC50 (A549 [16]): ≥ 50 µg/mL; IC50 (HeLa [17]): > 100 µg/mL; IC50 (HeLa [18]): > 100 µg/mL; viability at 48 h, 200 ug/ml [19]: 16.5%; viability at 48 h, 100 ug/ml [20]: 52.6%; viability at 48 h, 50 ug/ml [21]: 63.6%; viability at 48 h, 10 ug/ml [22]: 80.3%; viability at 72 h, 200 ug/ml [23]: 10.2%; viability at 72 h, 100 ug/ml [24]: 34.4%; viability at 72 h, 50 ug/ml [25]: 49%; viability at 72 h, 10 ug/ml [26]: 59.1%; viability at 48 h, 200 ug/ml [27]: 16.5%; viability at 48 h, 100 ug/ml [28]: 53.5%; viability at 48 h, 50 ug/ml [29]: 68.5%; viability at 48 h, 10 ug/ml [30]: 76.9%; viability at 72 h, 200 ug/ml [31]: 10.7%; viability at 72 h, 100 ug/ml [32]: 41.8%; viability at 72 h, 50 ug/ml [33]: 68.1%; viability at 72 h, 10 ug/ml [34]: 67.7%
5 | N=C(N)c1ccc(OCCCCCOc2ccc(C(=N)N)cc2)cc1 [PENTAMIDINE HYDROCHLORIDE] | 1.1 | 4.4 | 67 | 1.1 | 22 | 67 | 280 | 1670 | 1110 | 110 | 110 | 4.4 | 22 | 280 | 1110 | 1110 | 560 | 140 | 140 |  | MIC (Escherichia coli [35]): 280 µM; MIC [36]: 67 µM

Reference: ChEMBL document CHEMBL3286290, “In vitro screening of pentamidine analogs against bacterial and fungal strains” (Bioorg Med Chem Lett, 2014)
